According to article PMC3953731 (FEBS Open Bio, 2014):
Read-outs that look alike come from different tables or passages of the source.

Experiments:
[1] = tested on: the four isomaltases (Ima1p, Ima2p, Ima3p, Ima5p); assay: Activity of the isomaltases on substrates; assay type: biochemical, Saccharomyces cerevisiae; conditions: for activity on the substrate: all Ima proteins
Ima1p [2] = target: T1, Ima1p (Saccharomyces cerevisiae, UniProt P53051); conditions: isomaltose 50–500 mM; cited from earlier work
Ima3p [3] = target: T2, Ima3p (Saccharomyces cerevisiae, UniProt P0CW40); assay: Substrate specificity of purified isomaltase; assay type: biochemical; conditions: 100 mM substrate (pNPG 5 mM), pH 7, 30 °C; for Specific activities: citrate–potassium phosphate buffer
Ima5p [4] = target: T3, Ima5p (Saccharomyces cerevisiae, UniProt P40884); assay: Substrate specificity of purified isomaltase; assay type: biochemical; conditions: 100 mM substrate (pNPG 5 mM), pH 7, 30 °C; for Specific activities: citrate–potassium phosphate buffer
T3 sequence (P40884 1-581): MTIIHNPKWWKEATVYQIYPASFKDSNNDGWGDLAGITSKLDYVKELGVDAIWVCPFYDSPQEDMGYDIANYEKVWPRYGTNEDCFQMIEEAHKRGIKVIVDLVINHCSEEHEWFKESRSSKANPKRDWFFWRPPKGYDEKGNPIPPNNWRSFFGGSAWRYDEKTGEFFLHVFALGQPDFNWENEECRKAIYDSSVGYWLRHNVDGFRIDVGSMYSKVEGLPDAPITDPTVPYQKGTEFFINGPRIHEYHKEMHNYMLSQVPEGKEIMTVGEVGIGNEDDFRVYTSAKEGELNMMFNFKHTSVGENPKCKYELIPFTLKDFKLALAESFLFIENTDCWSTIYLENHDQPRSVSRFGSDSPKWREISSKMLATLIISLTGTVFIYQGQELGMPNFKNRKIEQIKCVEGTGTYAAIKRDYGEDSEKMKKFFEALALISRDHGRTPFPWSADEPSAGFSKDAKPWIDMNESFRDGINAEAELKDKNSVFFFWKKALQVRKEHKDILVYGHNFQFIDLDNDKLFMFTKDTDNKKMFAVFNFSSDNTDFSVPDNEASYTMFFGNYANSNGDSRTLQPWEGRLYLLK

Ima2p [5] = target: T4, Ima2p (Saccharomyces cerevisiae, UniProt Q08295); assay: Substrate specificity of purified isomaltase; assay type: biochemical; conditions: 100 mM substrate (pNPG 5 mM), pH 7, 30 °C; for Specific activities: citrate–potassium phosphate buffer
[6] = tested on: the four isomaltases (Ima proteins); assay: Effect of compounds on melting temperature of isomaltases; parameters: species or system Saccharomyces cerevisiae
Ima1p [7] = target: T1, Ima1p; assay: Substrate specificity of purified isomaltase; assay type: biochemical; conditions: 100 mM substrate (pNPG 5 mM), pH 7, 30 °C; for Specific activities: citrate–potassium phosphate buffer
Ima5p [8] = target: T3, Ima5p; assay: Inhibition by maltose of isomaltose hydrolysis; assay type: biochemical; conditions: isomaltose up to 50 mM
Ima1p [9] = target: T1, Ima1p; assay: Inhibition by maltose of isomaltose hydrolysis; assay type: biochemical
[10] = tested on: the four isomaltases (Ima1p, Ima2p, Ima3p, Ima5p); assay: Effects of chemical reagents and metal ions on purified isomaltases; assay type: biochemical, Saccharomyces cerevisiae
Ima1p [11] = target: T1, Ima1p; assay: Kinetic parameters for selected substrates; assay type: biochemical
Ima3pL240P = Ima3pL240P (Saccharomyces cerevisiae, UniProt P0CW40, L240P); assay: Substrate specificity of purified isomaltase variant; assay type: biochemical; conditions: 100 mM substrate (pNPG 5 mM), citrate–potassium phosphate buffer, pH 7, 30 °C
Ima2p [12] = target: T4, Ima2p; assay: Kinetic parameters for selected substrates; assay type: biochemical
Ima3pR279Q = Ima3pR279Q (Saccharomyces cerevisiae, UniProt P0CW40, R279Q); assay: Substrate specificity of purified isomaltase variant; assay type: biochemical; conditions: 100 mM substrate (pNPG 5 mM), citrate–potassium phosphate buffer, pH 7, 30 °C
Ima5p [13] = target: T3, Ima5p; assay: Kinetic parameters for selected substrates; assay type: biochemical
Ima3p [14] = target: T2, Ima3p; assay: Kinetic parameters for selected substrates; assay type: biochemical
Ima1p [15] = target: T1, Ima1p; assay: Effects of chemical reagents and metal ions on purified isomaltases; assay type: biochemical; conditions: 5 mM pNPG as substrate; for effect on activity: Mg2+ 5 mM, Mn2+ 1 mM
Ima1p [16] = target: T1, Ima1p; assay: Inhibition by acarbose of isomaltose hydrolysis; assay type: biochemical; conditions: read-out: residual activity
Ima3p [17] = target: T2, Ima3p; conditions: addition of EDTA, 5 mM; 5 mM pNPG as substrate
[18] = substrate concentration increased to 10 mM
[19] = affinity constant for the substrate, mean ± SEM
[20] = inhibition by high concentration of substrate

Ima3pR279Q, sequence (P0CW40 whole entry R279Q): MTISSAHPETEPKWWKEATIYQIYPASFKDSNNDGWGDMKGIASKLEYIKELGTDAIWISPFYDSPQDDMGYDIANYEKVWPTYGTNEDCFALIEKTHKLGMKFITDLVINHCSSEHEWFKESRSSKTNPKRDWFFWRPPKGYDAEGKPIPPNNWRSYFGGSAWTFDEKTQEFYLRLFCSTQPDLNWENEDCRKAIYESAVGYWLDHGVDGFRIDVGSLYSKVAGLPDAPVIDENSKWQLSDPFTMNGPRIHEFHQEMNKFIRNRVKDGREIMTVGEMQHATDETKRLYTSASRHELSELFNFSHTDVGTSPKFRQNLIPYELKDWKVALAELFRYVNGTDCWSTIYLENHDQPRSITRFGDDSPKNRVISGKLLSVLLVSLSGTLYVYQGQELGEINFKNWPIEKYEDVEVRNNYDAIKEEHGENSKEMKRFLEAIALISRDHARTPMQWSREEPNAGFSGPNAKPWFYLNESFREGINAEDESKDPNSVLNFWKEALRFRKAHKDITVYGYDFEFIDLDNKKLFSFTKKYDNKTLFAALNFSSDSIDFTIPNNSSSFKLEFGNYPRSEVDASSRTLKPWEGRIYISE
T4 sequence (Q08295 whole entry): as the sequence (P0CW40 whole entry R279Q) above, with T54A, L240P counted along it
T1 sequence (P53051 whole entry): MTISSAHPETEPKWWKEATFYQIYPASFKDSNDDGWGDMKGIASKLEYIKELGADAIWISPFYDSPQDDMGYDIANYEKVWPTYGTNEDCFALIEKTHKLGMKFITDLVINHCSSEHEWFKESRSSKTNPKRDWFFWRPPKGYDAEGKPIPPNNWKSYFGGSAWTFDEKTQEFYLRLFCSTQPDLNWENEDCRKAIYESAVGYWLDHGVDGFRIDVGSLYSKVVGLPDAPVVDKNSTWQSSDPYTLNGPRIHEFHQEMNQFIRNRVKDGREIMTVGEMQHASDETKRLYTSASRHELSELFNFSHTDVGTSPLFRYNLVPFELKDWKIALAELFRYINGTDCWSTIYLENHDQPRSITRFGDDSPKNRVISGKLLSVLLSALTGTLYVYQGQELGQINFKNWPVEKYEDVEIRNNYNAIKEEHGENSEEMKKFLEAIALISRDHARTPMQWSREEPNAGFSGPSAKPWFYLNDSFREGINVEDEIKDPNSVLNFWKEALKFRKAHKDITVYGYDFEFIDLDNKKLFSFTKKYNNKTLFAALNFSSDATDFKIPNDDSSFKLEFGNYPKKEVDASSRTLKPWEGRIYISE
Ima3pL240P, sequence (P0CW40 whole entry L240P): as the sequence (P0CW40 whole entry R279Q) above, with L240P, Q279R counted along it
T2 sequence (P0CW40 whole entry): as the sequence (P0CW40 whole entry R279Q) above, with Q279R counted along it

Compound: OC[C@H]1O[C@H](OC[C@H]2O[C@H](O)[C@H](O)[C@@H](O)[C@@H]2O)[C@H](O)[C@@H](O)[C@H]1O [melibiose, O-α-D-galactosyl-(1→6)-α-D-glucose]
- activity on the substrate [1]: inactive

Compound: OC[C@H]1O[C@H](O[C@H]2[C@H](O)[C@@H](O)[C@H](O)O[C@@H]2CO)[C@H](O)[C@@H](O)[C@@H]1O [Maltose, O-α-D-Glucosyl-(1→4)-α-D-glucose]
- type of inhibition (Ima1p [2]): competitive inhibitor
- activity on the substrate [1]: totally inactive
- Specific activities (Ima3p [3]): 0 µmol/min/mg
- Specific activities (Ima5p [4]): 0 µmol/min/mg
- Specific activities (Ima2p [5]): 0 µmol/min/mg
- effect on melting temperature ([6]; presence of maltose, results not shown): did not affect the melting temperature
- Specific activities (Ima1p [7]): 0 µmol/min/mg
- type of inhibition (Ima5p [8]): mixed inhibition
- type of inhibition (Ima1p [9]; at high substrate concentration): uncompetitive inhibition
- type of inhibition (Ima1p [9]; at low substrate concentration): competitive inhibition

Compound: NC(CO)(CO)CO [Tris]
- inhibition of the activity ([10]; 5 mM Tris): 90%
- increase of Tm of the 4 proteins ([6]; Tris 5 mM, assay at pH 7.0, results not shown): about 5 °C

Compound: O=[N+]([O-])c1ccc(O[C@H]2O[C@H](CO)[C@@H](O)[C@H](O)[C@H]2O)cc1 [α-pNPG, 4-Nitrophenyl α-D-glucopyranoside]
- Ki (Ima1p [11]): 25 ± 15 mM
- drop of activity at high substrate concentration (Ima1p [11]; [18]): 10%
- Km ([1]; read-out: affinity constants (Km), approximate, over the Ima proteins): ~500 µM
- Specific activities (Ima3pL240P): 5.5 µmol/min/mg
- Ki (Ima2p [12]): 12 ± 3 mM
- Specific activities (Ima3p [3]): 3.9 µmol/min/mg
- relative activity, velocity on isomaltose set to 100 (Ima3p [3]): 54%
- Specific activities (Ima5p [4]): 10 µmol/min/mg
- relative activity, velocity on isomaltose set to 100 (Ima5p [4]): 15%
- Specific activities (Ima2p [5]): 7.7 µmol/min/mg
- relative activity, velocity on isomaltose set to 100 (Ima2p [5]): 14%
- Specific activities (Ima1p [7]): 5.8 µmol/min/mg
- relative activity, velocity on isomaltose set to 100 (Ima1p [7]): 10%
- Specific activities (Ima3pR279Q): 8.5 µmol/min/mg
- Ki (Ima5p [13]): 33 ± 21 mM
- drop of activity at high substrate concentration (Ima5p [13]; [18]): 10%
- Ki (Ima3p [14]): 9.8 ± 3.2 mM
- drop of activity at high substrate concentration (Ima3p [14]; [18]): 33%

Compound: maltopentaose
- activity on the substrate [1]: No activity could be detected

Compound: [Ca+2] [Ca^2+]
- effect on activity ([10]; addition of Ca2+, 5 mM): None of the isoforms was affected

Compound: [Fe+3] [Fe^3+]
- residual activity (Ima1p [15]; 5 mM Fe3+, pH 7, 30 °C): 8%

Compound: [Mg+2] [Mg^2+]
- effect on activity (Ima1p [15]): slightly enhanced

Compound: C[C@H]1O[C@H](O[C@H]2[C@H](O)[C@@H](O)[C@@H](O[C@H]3[C@H](O)[C@@H](O)C(O)O[C@@H]3CO)O[C@@H]2CO)[C@H](O)[C@@H](O)[C@@H]1N[C@H]1C=C(CO)[C@@H](O)[C@H](O)[C@H]1O (some centres unmarked) [acarbose]
- remaining activity at 5000 µM (Ima1p [16]): ~80%
- remaining activity at 20000 µM (Ima1p [16]): ~40%

Compound: OC[C@H]1O[C@H](OC[C@H]2O[C@H](O)[C@H](O)[C@@H](O)[C@@H]2O)[C@H](O)[C@@H](O)[C@@H]1O [Isomaltose, O-α-D-Glucosyl-(1→6)-α-D-glucose]
- Km (Ima1p [11]; [19]): 17 ± 4 mM
- kcat (Ima1p [11]; mean ± SEM): 103 ± 12 s⁻¹
- Specific activities (Ima3pL240P): 2.2 µmol/min/mg
- Km (Ima2p [12]; [19]): 17 ± 2 mM
- kcat (Ima2p [12]; mean ± SEM): 97 ± 5 s⁻¹
- Specific activities (Ima3p [3]): 7.2 µmol/min/mg
- relative activity, velocity on isomaltose set to 100 (Ima3p [3]): 100%
- Specific activities (Ima5p [4]): 65 µmol/min/mg
- relative activity, velocity on isomaltose set to 100 (Ima5p [4]): 100%
- Specific activities (Ima2p [5]): 54 µmol/min/mg
- relative activity, velocity on isomaltose set to 100 (Ima2p [5]): 100%
- Specific activities (Ima1p [7]): 60 µmol/min/mg
- relative activity, velocity on isomaltose set to 100 (Ima1p [7]): 100%
- Specific activities (Ima3pR279Q): 29 µmol/min/mg
- Km (Ima5p [13]; [19]): 13 ± 2 mM
- kcat (Ima5p [13]; mean ± SEM): 101 ± 8 s⁻¹
- Km (Ima3p [14]; [19]): 37 ± 9 mM
- kcat (Ima3p [14]; mean ± SEM): 15 ± 2 s⁻¹

Compound: O=[N+]([O-])c1ccc(O[C@@H]2O[C@H](CO)[C@@H](O)[C@H](O)[C@H]2O)cc1 [β-pNPG, 4-Nitrophenyl β-D-glucopyranoside]
- activity on the substrate [1]: no release of pNP
- Specific activities (Ima3p [3]): 0 µmol/min/mg
- Specific activities (Ima5p [4]): 0 µmol/min/mg
- Specific activities (Ima2p [5]): 0 µmol/min/mg
- Specific activities (Ima1p [7]): 0 µmol/min/mg

Compound: OC[C@H]1O[C@@](CO)(O[C@H]2O[C@H](CO)[C@@H](O)[C@H](O)[C@H]2O)[C@@H](O)[C@@H]1O [Sucrose, O-α-D-Glucosyl-(1→2)-β-D-fructose]
- Ki (Ima1p [11]; [20]): None
- kcat (Ima1p [11]; mean ± SEM): 51 ± 4 s⁻¹
- Specific activities (Ima3pL240P): 11.2 µmol/min/mg
- Ki (Ima2p [12]; [20]): None
- kcat (Ima2p [12]; mean ± SEM): 55 ± 4 s⁻¹
- Specific activities (Ima3p [3]): 10.2 µmol/min/mg
- relative activity, velocity on isomaltose set to 100 (Ima3p [3]): 142%
- Specific activities (Ima5p [4]): 1.2 µmol/min/mg
- relative activity, velocity on isomaltose set to 100 (Ima5p [4]): 2%
- Specific activities (Ima2p [5]): 19.7 µmol/min/mg
- relative activity, velocity on isomaltose set to 100 (Ima2p [5]): 36%
- relative activity, velocity on isomaltose set to 100 (Ima2p [5]; listed as sucrose): approx. 35%
- Specific activities (Ima1p [7]): 18.6 µmol/min/mg
- relative activity, velocity on isomaltose set to 100 (Ima1p [7]): 31%
- relative activity, velocity on isomaltose set to 100 (Ima1p [7]; listed as sucrose): approx. 35%
- Specific activities (Ima3pR279Q): 22 µmol/min/mg
- lower activity of Ima5p than Ima1p (Ima5p [13]): 10 fold
- Ki (Ima5p [13]; [20]): None
- kcat (Ima5p [13]; mean ± SEM): 3.8 ± 0.2 s⁻¹
- catalytic efficiency on sucrose, times lower than on isomaltose (Ima3p [14]): 2 times
- catalytic efficiency on sucrose, times lower than on palatinose (Ima3p [14]): 4 times
- Ki (Ima3p [14]; [20]): None
- kcat (Ima3p [14]; mean ± SEM): 25 ± 1 s⁻¹

Compound: O=C(O)CN(CCN(CC(=O)O)CC(=O)O)CC(=O)O [EDTA]
- effect on activity (Ima3p [17]): slightly inhibited

Compound: [Mn+2] [Mn^2+]
- effect on activity (Ima1p [15]): slightly enhanced

Compound: maltoheptaose
- activity on the substrate [1]: No activity could be detected
